Molecular target: D(2) dopamine receptor (Rattus norvegicus, UniProt P61169)
Test: Binding affinity against the Dopamine receptor D2 in rat striatum by using [3H]spiperone radioligand
Type: tissue-based

Sequence of D(2) dopamine receptor (P61169 whole entry): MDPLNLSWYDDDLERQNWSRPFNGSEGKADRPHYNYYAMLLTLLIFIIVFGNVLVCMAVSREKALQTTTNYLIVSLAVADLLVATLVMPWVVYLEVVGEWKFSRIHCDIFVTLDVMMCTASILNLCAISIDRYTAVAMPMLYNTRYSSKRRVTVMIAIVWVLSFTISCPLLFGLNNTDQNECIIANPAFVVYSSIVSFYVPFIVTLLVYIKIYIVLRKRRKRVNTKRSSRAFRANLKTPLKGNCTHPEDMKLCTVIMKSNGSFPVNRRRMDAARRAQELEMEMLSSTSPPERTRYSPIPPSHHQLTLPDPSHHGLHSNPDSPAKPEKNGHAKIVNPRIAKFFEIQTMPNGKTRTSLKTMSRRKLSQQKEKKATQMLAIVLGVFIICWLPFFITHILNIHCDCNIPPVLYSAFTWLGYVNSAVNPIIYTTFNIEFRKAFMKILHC

IC50: 4.9 µM
SMILES: OC(CCCN1CCN(c2ncc(F)cn2)CC1)c1ccc(F)cc1 (stereo unspecified) [BMY-14802]

Reference: ChEMBL document CHEMBL1126398, “(5S)-3-aryl-5-(1-piperidinylmethyl)-2-oxazolidinones, a new class of potential neuroleptics with a high affinity for sigma receptors” (Bioorg Med Chem Lett, 1992)
